The results in this text go back to publication doi:10.1101/2025.02.02.636098v1 (biorxiv, 2025).

The target of test [1] is T1, mFFA4 (mouse FFA4) (Mus musculus, UniProt Q7TMA4).
T1 sequence (Q7TMA4 1-361): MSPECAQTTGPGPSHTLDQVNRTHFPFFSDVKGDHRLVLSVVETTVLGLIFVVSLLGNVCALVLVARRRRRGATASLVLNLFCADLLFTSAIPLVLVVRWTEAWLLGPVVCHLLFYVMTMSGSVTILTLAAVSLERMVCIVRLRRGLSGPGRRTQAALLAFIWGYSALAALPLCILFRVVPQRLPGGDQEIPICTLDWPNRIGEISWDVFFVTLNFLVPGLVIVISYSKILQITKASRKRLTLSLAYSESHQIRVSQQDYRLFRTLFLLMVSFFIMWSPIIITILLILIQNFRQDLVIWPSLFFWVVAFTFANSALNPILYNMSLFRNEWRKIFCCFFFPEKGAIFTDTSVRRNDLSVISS
As to the kind of experiment: bystander BRET arrestin-3 recruitment, HEK293T. The class given is cell-based. (In general: Bioluminescence resonance energy transfer reports proximity on the nanometre scale.)

Test [2] has as its target T1, mFFA4 (mouse FFA4). As to the kind of experiment: Ca2+ mobilisation, Fura-2, Flp-In T-REx […]. The format is cell-based.

In general, IC50 refers to the point on the concentration scale where inhibition reaches its midpoint. High values mean weaker potency in that assay, low ones greater potency in that assay. `Cc1ccc(S(=O)(=O)NC2c3ccccc3Oc3ccccc32)cc1` [AH7614, 4-Methyl-N-9H-xanthen-9-yl-benzenesulfonamide] showed an IC50 in test [1] of 200 nM. What is called EC50 is the concentration needed to bring the measured effect to its halfway point. On to `CC/C=C\C/C=C\C/C=C\CCCCCCCC(=O)O` [aLA], for which the EC50 in test [2] is 10 µM.
